Laboratory results: US20140170096A1, “SUNSCREEN COMPOSITIONS” (priority 2011, published 2014)

Assays:
[1] = test system: viruses in water surrounding coral nubbins; test: Viral abundance and viral enrichment in seawater surrounding coral nubbins (microcosm incubation); details: for Total viral abundances (TVN): seawater surrounding Acropora sp. nubbins, compound concentration per Table 2; for Viral enrichment factor (VEF): ratio of viral abundances, end vs start of incubation
Experimental: (§1) In situ tests were performed on nubbins (i.e., small branches of about 3-6 cm) of the stony coral Acropora sp. The nubbins were incubated in microcosms in presence of known concentrations of various ingredients potentially to be included in the composition of the eco-compatible sunscreen cream. In particular, coral nubbins (including more than 3000 polyps each) were collected by scuba divers from the same colony, located at a depth of about 3 m on the edge of the reef slope. Sampling of nubbins was performed by means of forceps. The nubbins were washed with seawater filtered onto 0.02-μm filters to eliminate viruses and prokaryotes. Each microcosm was prepared with a replicate set of nubbins (n=3) immersed in sterile polyethylene bags (Whirl-pack, Nasco, Fort Atkinson, Wis., USA) filled with 2 L filtered seawater. A total of 27 microcosms were prepared, in order to test 20 ingredients with the respective positive and negative controls. The microcosms were incubated at in situ temperature and light conditions for 72 hours.
(§2) After subsampling, sea water was transferred into sterile test tubes without use of fixatives and stored at −20° C. until laboratory analysis for quantification of viral and prokaryotic abundance. Once in laboratory, the water samples were immediately processed. Briefly, 200 uL sea water were diluted 1:10 with prefiltered MilliQ water, through 0.02-μm pore filters (Anodisc filter; 25-mm diameter, Al2O3; Whatman) and stained with 20 μL SYBR Green (stock solution diluted 1:20; Invitrogen, Carlsbad, Calif., USA). […] Slides were stored at −20° C. until microscopy analysis. Virus and prokaryote counts were obtained by epifluorescence microscopy (magnification, ×1000; Zeiss Axioplan) by examining at least 10 optical fields, that is, at least 200 cells or viruses per replicate. Viral (and prokaryotic) enrichment was calculated as ratio between virus (and prokaryote) abundances and virus (and prokaryote) abundance at the […] of the experiment.

[2] = test system: prokaryotes in water surrounding coral nubbins; test: Prokaryotic (bacterial) abundance and enrichment in seawater surrounding coral nubbins (microcosm incubation); details: seawater surrounding Acropora sp. nubbins
Experimental: as §1, §2

[3] = test system: symbiotic zooxanthellae released from coral nubbins; test: Zooxanthellae counts: zooxanthellae released in water surrounding coral nubbins; format: in vivo, Acropora sp.; details: for Healthy zooxanthellae released / Pale zooxanthellae released / Total zooxanthellae released / Transparent (i.e., dead) zooxanthellae released: end of incubation (72 h); for Percentage of healthy zooxanthellae released / Percentage of pale zooxanthellae released / Percentage of transparent zooxanthellae released: of total released, end of incubation
Experimental: as §1
Subsamples (50 mL) of seawater surrounding coral nubbins were collected at the start of the experiment (T0) and after 6, 12, 24, 36, 48 and 72 hours of incubation. The subsamples were fixed in 3% glutaraldehyde and then about 6.0 ml of each replicate was filtered through 2.0-μm polycarbonate filters. Filters were mounted on glass slides and zooxanthellae counted under epifluorescence microscopy (Zeiss Axioplan, Carl Zeiss Inc., Jena, Germany; ×400 and ×1000) using standard and UV light.

[4] = test system: stony coral Acropora sp. nubbins; test: Quantification of coral bleaching by colorimetric (CMYK) analysis of digital photographs; format: in vivo; details: Acropora sp. (stony coral), in vivo, 72 h
Experimental: as §1
Photographs were taken under identical illumination with a Canon PowerShot A620 digital camera (Canon Inc., Tokyo, Japan) with a scale meter on the background. The photos were successively analyzed with a photo-editing software (Adobe Photoshop CS2) for color composition [cyan, magenta, yellow, black (CMYK)]. Levels of bleaching were measured as the difference between the corals' color at the beginning of the experiment and after treatments. Variations in the percentage of the different color components (CMYK) were analyzed with one-way analysis of variance (ANOVA). To rank the bleaching effect due to the compounds tested, a Bray-Curtis similarity matrix was prepared and a multidimensional scaling analysis of the shifts in CMYK color composition of treated corals was performed using Primer 5.0 software (Primer-E Ltd., Plymouth, UK). Bleaching rates were measured as the dissimilarity percentage in CMYK color composition between treated and control corals using the SIMPER tool of Primer 5.0 software (Primer-E Ltd).

coral reefs = test: Summary of eco-compatibility of tested products with coral reefs; set-up: species or system Acropora sp.
Experimental: In order to select the most eco-compatible products for each group of compounds (i.e., base cream, fragrance, antioxidants and filters) the following criteria were selected:
1. coral bleaching level; 2. degree of release of symbiotic zooxanthellae; 3. zooxanthellae health conditions; 4. viral enrichment in the incubation medium with respect to controls.

SMILES | Total viral abundances (TVN) ([1]; incubation 0 (start)) | Total viral abundances (TVN) ([1]; incubation 12 h) | Viral enrichment factor (VEF) [1] | Bacterial abundance (total bacterial number, TBN) ([2]; incubation 0 (start)) | Bacterial abundance (total bacterial number, TBN) ([2]; incubation 12 h) | Healthy zooxanthellae released [3] | Pale zooxanthellae released [3] | Total zooxanthellae released [3] | Transparent (i.e., dead) zooxanthellae released [3] | Percentage of healthy zooxanthellae released [3] | Percentage of pale zooxanthellae released [3] | Percentage of transparent zooxanthellae released [3] | Number of color channels (of 4, CMYK) significantly altered [4] | Eco-compatibility (coral reefs)
CC1=C(/C=C/C(C)=C/C=C/C(C)=C/CO)C(C)(C)CCC1 [System D20, Retinol] | 2.47E+05 viruses ml^−1 | 1.97E+06 viruses ml^−1 | 8.09 | 3.62E+04 | 1.71E+06 | 6.04E+02 cells ml^−1 | 7.18E+03 cells ml^−1 | 1.46E+04 cells ml^−1 | 6.84E+03 cells ml^−1 | 4% | 49% | 47% | 1 | Compatible
CCCCCCCCCCCCCCCC(=O)OC/C=C(C)/C=C/C=C(C)/C=C/C1=C(C)CCCC1(C)C [System D19, retinyl palmitate] | 1.03E+05 viruses ml^−1 | 1.98E+06 viruses ml^−1 | 18.92 | 3.62E+04 | 1.54E+06 | 1.07E+03 cells ml^−1 | 5.30E+03 cells ml^−1 | 1.23E+04 cells ml^−1 | 5.97E+03 cells ml^−1 | 9% | 43% | 48% | 1 | Compatible
